The numbers were not newly measured in patent US6761903B2, “Clear oil-containing pharmaceutical compositions containing a therapeutic agent” (Lipocine, Inc., priority 1999, dated 2004), which cites them from elsewhere.

The conditions of one data set: as reported by the manufacturer of the commercial product, rough average or inventors' judgment.
Consider Polyglyceryl-6 oleate, for which the HLB is 9. In the case of Polyglyceryl-6 pentaoleate, the HLB is on record as below 10. As to Polyglyceryl-6 ricinoleate, the HLB was above 8.

As to Polyglyceryl-10 decaisostearate, the HLB is below 10. On to Polyglyceryl-10 mono, dioleate, for which the HLB is reported as 11. For Polyglyceryl-10 oleate, the HLB was 14. As for Polyglyceryl-10 pentaoleate, the HLB was 3.5.

Consider Polyglyceryl-10 septaoleate, for which the HLB was 3. In the case of Polyglyceryl-10 tetraoleate, the HLB is given as 6.2. Regarding Polyglyceryl-10 trioleate, the HLB is on record as 7. Polyglyceryl-101 decaoleate: the HLB is 3.5. On to Propylene glycol dicaprylate/dicaprate, for which the HLB is on record as above 6. Sorbitan monoisostearate: the HLB is 4.7. For the compound Sorbitan monooleate, the HLB was 4.3.

Take Sorbitan monopalmitate: the HLB was 6.7.

Regarding Sorbitan monostearate, the HLB is 4.7. With Sorbitan sesquistearate, the HLB is 4.2. Turning to Sorbitan trioleate, the HLB is on record as 4.3. With Sucrose dipalmitate, the HLB is 7.4. In the case of Sucrose distearate, the HLB is 3. For Sucrose monopalmitate, the HLB is above 10.

Settings in a further data set: not given
Take `CCCCCCCC/C=C\CCCCCCCC(=O)OCC(O)CO` (stereo not drawn) [glycerol monooleate]: the solubility in water entry is given as “practically water insoluble”.

Still in this data set, the particulars now being: water having a pH at about 7 and below.
As for `C[C@H](CCC(=O)O)[C@H]1CC[C@H]2[C@@H]3[C@H](O)C[C@@H]4C[C@H](O)CC[C@]4(C)[C@H]3CC[C@]12C` [CDCA, chenodeoxycholic acid], the solubility in water result was “practically insoluble”. `C[C@H](CCC(=O)O)[C@H]1CC[C@H]2[C@@H]3[C@@H](O)C[C@@H]4C[C@H](O)CC[C@]4(C)[C@H]3CC[C@]12C` [UDCA, ursodeoxycholic acid]: the solubility in water entry is “practically insoluble”.
